Test results published in a melting point compilation (Tetko et al.; mined from patent text by program, amines drawn as free bases though some values may be those of a salt).

Compound | melting point [°C]
CCCCCCCC(=O)Oc1ccc(-c2nc(-c3ccc(N(C)C)cc3)c(C)[nH]2)cc1OC | 126 to 129
O=C(Cc1ccccc1C(=O)O)Nc1cccc(/C=C/c2nc(C3CCCCCC3)cs2)c1 | 189 to 190
COc1ccc(C(O)COc2ccc(C(=O)O)c(O)c2)cc1C(C)(C)C (stereo unspecified) | 149 to 150
CO[C@@H]1CNCC[C@H]1NC(=O)c1cccc(C(F)(F)F)c1 (relative stereo) | 100
Cc1nn2c(-c3cc(Cl)ccc3Cl)ccnc2c1C#N | 234 to 236
CN(C)c1ncc2c(=O)n(CCc3ccccn3)sc2n1 | 134 to 136
CN(C)C(=O)[C@@H]1CS[C@@H](CS)C1 | 41.8 to 44.4
CC1(C)CC(=O)c2c(SCCO)sc(-c3cc[nH]n3)c2C1 | 182 to 185
COC(=O)Cc1cc(OC)ccc1OCc1ccc(OCc2nc(-c3ccccc3)oc2C)cc1 | 160 to 161
Cc1ccc(S(=O)(=O)NC(=O)C2C(=O)CC(C)CC2=O)cc1 (stereo unspecified) | 122
O=C(NNS(=O)(=O)c1ccccc1)c1ccc(-c2ccccc2)cc1 | 216 to 219
CC(=O)Cc1ccc(OCC2CO2)cc1 (stereo unspecified) | 43
COC(=O)C1=C(C)Nc2nccn2C1c1cccc(C(C)=O)c1 (stereo unspecified) | 227 to 229
COc1cccc2c(=O)cc(-c3ccccc3SCc3ccccc3)[nH]c12 | 139 to 140
O=C(NCCOC1CCCCO1)c1cc([N+](=O)[O-])cc([N+](=O)[O-])c1N(CCO)CCCl (stereo unspecified) | 106 to 108
CC1Oc2ccc(CN3CCN(c4ccc(C#N)cc4)CC3)cc2NC1=O (stereo unspecified) | 266 to 268
CCOC(=O)c1c(CCl)nc2cc(OC)c(OC)cc2c1-c1ccc(OC)c(OC)c1 | 147 to 148
C[C@@H](N1CCN(S(C)(=O)=O)CC1)[C@](O)(Cn1cncn1)c1ccc(F)cc1F | 83 to 85
CCC12CCC3C4CCC(OC(C)=O)=CC4=CCC3C1CCC2OC(C)=O (stereo unspecified) | 148 to 156
O=C(Nc1cc(C(F)(F)F)ccc1N1CCCCCC1)c1ccncc1 | 138 to 139
Clc1cc(Cl)cc(Oc2cccc(-c3nnc(Nc4ccc(Cl)c(Cl)c4)s3)c2)c1 | 242 to 243
COc1ccc(/C=C(/C#N)c2cc(OC)c(OC)c(OC)c2)cc1N | 144 to 145
Nc1cc2c(Nc3ccc(F)c(Cl)c3)ncnc2cc1OCC1CCOCC1 | 221
CCCCC(C(=O)NO)S(=O)(=O)c1ccc(OC)cc1 (stereo unspecified) | 130
OC1CCc2cc(F)cc(F)c21 (stereo unspecified) | 102 to 103
COC(=O)N(C)CCCC(=O)OC[C@@H]1CC(c2ccc(-c3ccc(N4C[C@H](Cn5ccnn5)OC4=O)cc3F)cn2)=NO1 | 135

Compound | melting point [°C]
CC(=O)Nc1nc(C)c(S(=O)(=O)NC(CO)CO)s1 | 217
O=C(NCCO)c1nc2ccccc2[nH]1 | 194 to 195
O=c1c2ccccc2nc(CCc2c[nH]c3ccccc23)n1-c1ccccc1 | 193 to 194
Cc1nc(-c2ccccc2)c(-c2ccccc2)n1CCCCCCNC(=O)Oc1ccccc1F | 129 to 131
N#Cc1c(N2CCCCC2)[nH]c2cccnc12 | 241 to 242
CCCCC(=O)Nc1ccc(C2=N[C@H]3CCN(C)C[C@H]3c3cc(OC)c(OC)cc32)cc1 (relative stereo) | 230 to 235
CC1CCN=C2N1c1ccc(Br)cc1C21OCCCO1 (stereo unspecified) | 69 to 72
NC(=O)c1nnn(Cc2ccccc2C(F)(F)F)c1N | 197 to 198
COC(=O)c1ccc(C=Cc2ccc(-c3cc4cc(Cl)ccc4o3)cc2)cc1 | 264 to 266
CN(C)S(=O)(=O)c1cc2c(c(Cl)c1Cl)OC(C(=O)OCC(=O)OC(c1ccccc1)c1ccccc1)C2 (stereo unspecified) | 56 to 58
CC1(C)c2ccccc2-c2[nH]c3ccccc3c21 | 160
COc1cc(NC(=O)Nc2ccc3c(c2)CCN(C(=O)Nc2ccc(OCC(O)CO)cc2Cl)C3)cc(OC)c1 (stereo unspecified) | 108 to 110
CCCCCCCCCCCCCCCCc1cc(S)c(Sc2nnc(SCC(=O)O)s2)cc1O | 71 to 76
CCCCC(=O)c1ccc(C(=O)Nc2ccc3cc(CN4CCCC4)cnc3c2C)cc1 | 180
CN(C)c1nn(-c2c(Cl)cc(C(F)(F)F)cc2Cl)c(=O)n1C | 105 to 107
CON=Cc1[nH]ccc1S(=O)(=O)NC(C)(C)C | 99 to 101
CCc1ccc(C(=O)Nc2ccccc2)cc1[N+](=O)[O-] | 111 to 113
Cc1ccc(S(=O)(=O)N[C@@H](C)C(=O)N[C@@H](Cc2ccccc2)C(=O)OCc2ccccc2)cc1 | 109 to 110
COc1ccc(CBr)cc1-c1nsc2ccc(-n3c(=O)cc(C(F)(F)F)n(C)c3=O)cc12 | 158 to 160
CCCC1(C)OC(=O)C(OC(C)C)=C1c1ccc(S(C)(=O)=O)cc1 (stereo unspecified) | 95 to 96
CCCCCCCCCCC(O)CNC (stereo unspecified) | 56 to 57
Cc1c(NC(=O)C(CSC(=O)C2CCCCC2)Cc2ccccc2)cccc1C(=O)O (stereo unspecified) | 117 to 120
O=C(O)C1CCCCCCCSC[C@@H](C(=O)O)NC1=O (stereo partly specified) | 167 to 170
NCc1ccc(N2CCN(c3ccncc3)CC2)cc1 | 168 to 170
COC(=O)c1cccn1Cc1ccccc1 | 31 to 32
CCCCNC(=S)Nc1nc2ccc(OC(F)(F)F)cc2s1 | 211

Compound | melting point [°C]
CCc1c2nc(-c3cc(S(C)(=O)=O)ccc3OCC(C)C)[nH]c(=O)c2nn1CCN1CCOCC1 | 268 to 273
COc1cccc2c1C(OC)(OC)C=CC2=O | 62 to 63
NC(=O)CNC(=O)c1ccc(F)c(-c2cccc3cc(Cc4cc(F)cc(Cl)c4)sc23)c1 | 159 to 160
CCOC(=O)Nc1ccc2ccccc2c1 | 69 to 70.5
O=C(O)c1cc([N+](=O)[O-])ccc1NCCc1ccccc1 | 116 to 118
CC(C)(O)COc1ccc(CCCO)c(Oc2ncc(C(F)(F)F)cc2Cl)c1 | 81.2 to 82
O=C(O)CC[C@H](NC(=O)N1CCc2cc(S(=O)(=O)N3CCN(c4cccc(Cl)c4)CC3)ccc21)C(=O)O | 181 to 182
N#Cc1ccc2c(c1)C1(c3ccccc3-2)c2ccccc2-c2ccc(C#N)cc21 | 215 to 245
O=C(O)C(CC(=O)N1CCOCC1)Oc1ccccc1 (stereo unspecified) | 150 to 151
CC1(C)CCCC(C)(C)N1OCc1ccccc1C(=O)ON1C(=O)CCC1=O | 145
CCOC(=O)CN1C(=O)Nc2cccc(OC)c2C1C (stereo unspecified) | 150 to 151
CC(=O)OCC1(c2ccccc2)CCC(=O)CC1 | 74 to 79
O=C1CNc2cc(Cl)ccc2N1 | 171 to 174
Cc1ccc(C(=S)Oc2nc[nH]c2C(N)=O)cc1 | 219
NN1C=Nc2ccc(Cl)cc2C1(O)c1ccccc1Cl (stereo unspecified) | 198
Oc1ccc(I)c(-c2cc(O)ccc2I)c1 | 181 to 182
O=C1C=CN=CC1[N+](=O)[O-] (stereo unspecified) | 282 to 284
Cc1c(C=CCCCCCCCCCC(=O)O)cccc1C(=O)c1ccc(Cl)cc1 | 49
CC(NC(=O)OC(C#N)c1cccc(Oc2ccccc2)c1)c1cccc2ccccc12 (stereo unspecified) | 122
CC[C@H](C)[C@@H](CO)NS(=O)(=O)c1ccc(I)cc1 | 118 to 120
COc1ccc(Nc2cccc(Cl)n2)cc1 | 74 to 76
O=C(NCC1C2(CCCC1(c1ccccc1)c1ccccc1)OCCO2)c1ccccc1 (racemic) | 162
CC(=O)Oc1ccc(N2C(=O)CC(=O)N2c2ccccc2)cc1 | 132 to 134
CCOC(=O)c1c(CCc2c[nH]nn2)nc2sc3c(c2c1-c1ccc(OC)c(OC)c1)CCN(C(=O)c1ccccc1)C3 | 184 to 185
CCCN(C)C(=O)Nc1c(C(=O)c2ccccc2)[nH]c2cc(Cl)ccc12 | 168 to 171
C#Cc1ncn2c1CN(C)C(=O)c1ccccc1-2 | 191 to 193

Compound | melting point [°C]
CN(C)C=CC(=O)C(c1ccccc1)c1ccccc1 | 93 to 94
CCCCCCCNC(=O)Nc1ccccc1CCc1cc(C(C)C)c(O)c(C(C)C)c1 | 150 to 151
CC(C)(C)c1cc(OCc2ccc(C(=O)O)cc2)cc(C(C)(C)C)c1 | 212 to 215
CC(C)(C)Nc1nc(NCc2ccccc2)c(C#N)cc1F | 138 to 140
COc1ccccc1OC1(Cl)C=NC(N2CCOCC2)=NC1Cl (stereo unspecified) | 180
CCC(CC)Sc1cc2c(cc1Cl)N=C(C(N)=O)NS2(=O)=O | 287 to 289
CCCCCCCCCCCCCCCCCC(=O)c1ccc(C2=NC(C)(C)CO2)c(Cl)c1 | 57 to 60
O=C(O)COc1ccc2c(=O)c3c(oc2c1)C(=Cc1ccccc1)CC3 | 277 to 279
Cc1nc2c(Br)cnn2c(Cl)c1CCCl | 128 to 130
O=C1COc2ccc3c(c2N1)C(=O)CC3 | 136 to 139
Cc1noc(C)c1C(=O)Nc1ccc(-n2nc(C(F)(F)F)cc2C2CC2)cc1 | 170 to 172
CN1CCC2(CC1)NC(=S)N(c1ccc(C#N)c(C(F)(F)F)c1)C2=N | > 264
CCC(c1ccc(Br)cc1)N(O)C(N)=O (stereo unspecified) | 139 to 141
O=C(Nc1cccc(S(=O)(=O)N2CCOCC2)c1)c1cnn2c(C(F)F)cc(-c3ccc(Cl)c(Cl)c3)nc12 | 231
COc1cc(OC)nc(Oc2ccc3[nH]c(C)c(NC(C)=O)c3c2C(=O)O)n1 | 230 to 233
COc1ccc(CNC(=O)c2c[nH]c3ccc(N4CCCC4)nc3c2=O)cc1 | 270 to 272
CC(C)CCn1c(=O)c(=NNc2ccccc2)c(=O)n(-c2ccccc2F)c2ccccc21 | 104 to 105
COc1cc(/C=C/C(=O)Nc2ccccc2C(=O)O)ccc1OCc1cn(CC(=O)Nc2ccccc2)nn1 | 220 to 222
COC(=O)c1ccc2nc(Sc3nnc(C)s3)c(C(F)(F)F)nc2c1 | 151 to 152
CCOC(=O)COc1cc(C)c(C)c2c1CC(Br)C2=O (stereo unspecified) | 71 to 73
O=C(O)CCN(O)CCC(=O)O | 148 to 149
CCCCCCCCCCCCCCCCNc1ccc(C(=O)NS(C)(=O)=O)cc1 | 173 to 175
COc1c(F)c(F)cc2c(O)c(C(=O)NCc3ccc(Cl)cc3)cnc12 | 248 to 251
